Reference: patent US7101915B1, “P-terphenyl compounds” (Shionogi & Co., Ltd., priority 1996, dated 2006)
Marks after values point to notes of the source that are not given here.

Columns and labels:
[1] = system: BGG-specific IgE in a serum; assay: Suppressive effect on the antibody production against bovine γ globulin (BGG), sandwich ELISA; type: in vivo, BALB/c mice; conditions: 50 mg/kg p.o. every day, serum after 21 days
Method: Experiment 3 Suppressive Effect on the Antibody Production Against Bovine γ Globulin (BGG)
On an immunizing day and 7 days after, 50 μg of BGG was subcutaneously inoculated to backs of BALB/c mice (male, 6-8 weeks old) for inducing an immune reaction. After the compound of the present invention was dissolved or suspended in N, N-dimethylacetoamide, the mixture was diluted with miglyol 812 neutral oil. A proper volume of the compound was orally administered (p.o.) to mice every day from the next day of the immunizing. A two hundredth weight to body weight of miglyol was administered to mice in a control group. After 21 days, blood was drawn from each mouse and a serum was separated. BGG-specific IgE in a serum was measured by the sandwich ELISA method using a BGG-coating plate. The suppressive rate of IgE production was calculated from the dilution rate of the serum which has the same absorption intensity as that of the control group for judging the effect of the compound of the present invention.

[2] = system: anti-OVA IgE antibody titer (PCA titer); assay: Suppressive effect on the IgE production against ovalbumin (OVA), PCA titer; type: in vivo, BALB/c mice; conditions: 40 mg/kg orally for 10 days; untreated group 9-12
Method: Experiment 4 Suppressive Effect on the IgE Production Against Ovalbumin (OVA)
BALB/c mice (female, 8-10 weeks old) and Wistar rats (female, 8-10 weeks old) which were bought from Japan SLC, Inc. (Shizuoka) were used.
BALB/c mice were immunized by an intraperitoneal administration of 0.2 ml suspension of 2 μg of ovalbumin (OVA) and 2 mg of aluminium hydroxide gel in physiological saline. After 10 days, blood was drawn from hearts, sera were separated and stocked at −40° C. till the measurement of an IgE antibody titer.
After the compound of the present invention was dissolved or suspended in N, N-dimethylacetoamide, the mixture was diluted 20 times with miglyol 812 neutral oil. The obtained solution was orally administered to mice at 0.1 ml per mouse. The administration was continued for 10 days from the immunizing day to the day before drawing blood. IPD-1151-T (a compound described in Jpn. Pharmacol. (1993) 61, 31–39) and a compound No. 36 (a compound 36 described in J. Med. Chem. (1997) 40: 395–407) were examined as controls by the same method.
4) Measurement of Anti-OVA IgE Antibody Titer (PCA Titer)
The samples 2-fold diluted with physiological saline were prepared from the obtained mouse serum and each 50 μl of the solution was intradermally injected to backs of Wistar rats which previously hair cut. After 24 hours, a passive cutaneous anaphylaxis reaction (PCA) was induced by an intravenous injection of 0.5 ml of physiological saline containing 1 mg of OVA and 5 mg of Evans' blue dye. After 30 minutes, the rats were sacrified and the highest dilution rate of the serum giving bluing with a diameter of more than 5 mm was recorded as the PCA titer. For example, when a serum is positive for the PCA reaction till […], the anti-OVA IgE antibody titer of the mouse is defined as 7.

[3] = system: IgG1 production of mouse spleen lymphocytes; assay: Suppressive effect on antibody production of mouse spleen lymphocytes: IgG1; type: cell-based, BALB/c (nu/nu) mice; conditions: Lymphocyte, 240 h, LPS + IL-4, 10 days
Method: (§1) Experiment 6 Suppressive Effect on Antibody Production of Mouse Spleen Lymphocytes 1. Experimental Method 1) Animals
(§2) BALB/c (nu/nu) mice were bought from Japan SLC, Inc. (Shizuoka) and 7 weeks old-male mice were used.
(§3) RPMI medium (Nissui Pharmaceutical Co., Ltd.) containing 10% fetal bovine serum (HyClone Lab.) inactivated at 56° C. for 30 minutes, penicillin (100 units/ml) and streptomycin (100 μg/ml) (GIBCO) was used for experiments.
(§4) Each of the compounds was dissolved in dimethylsulfoxide (Nakaraitesk) at […] and diluted with the medium to adjust a final concentration to 0.1 μg/ml −10 μg/ml.
(§5) 4) Mouse Spleen Lymphocytes […]
(§6) In 96-well cultivating plate (Sumitomo Bakelite Company Limited) mouse spleen lymphocytes were inoculated 2×10^5 cells per well. […] After the cultivation for 10 days, the amount of the antibody in a supernatant was quantified by ELISA method.
(§7) 7) Quantification of the IgG1, IgG2a and IgM Antibodies
(§8) In 96-well plate 50 μl of 10 μg/ml Goat Anti-Mouse Ig (IgM+G+A, H+ L) (Southern Biotechnology, Birmingham) was added and the plate was coated at 4° C. overnight. […] After washing three times with PBST, 100 μl of culture supernatant which was diluted with PBS or 100 μl of an antibody standard solution (Mouse IgG1 standard, Mouse IgG2a standard, Mouse IgM standard, BETHYL Laboratories) of a pre-determined concentration was added and incubated for 1 hour. […]

[4] = system: IgG2a production of mouse spleen lymphocytes; assay: Suppressive effect on antibody production of mouse spleen lymphocytes: IgG2a; type: cell-based, BALB/c (nu/nu) mice; conditions: Lymphocyte, 240 h, LPS + IL-4, 10 days
Method: as §1, §2, §3, §4, §5, §6, §7, §8

IC50 [3]: 0.51 µg/mL | IC50 [4]: 3.6 µg/mL | melting point: 93 to 94 °C
Compound: Cc1cc(-c2ccc(OCC=C(Cl)Cl)c(F)c2)c(C)cc1-c1ccc(O)cc1 [Compound I-963]
Suppressive rate of antigen-specific IgE [1]: >99% | PCA Titer [2]: 3.6**
